Measurements published in patent US20230023092A1, “TREATMENT OF DEPRESSION AND OTHER VARIOUS DISORDERS WITH PSILOCYBIN” (COMPASS […], priority 2019, published 2023).

Tested on: healthy subjects
Experiment: Symptom Checklist-90 Item (SCL-90)
Type: in vivo, human
From the text: In some embodiments, the Symptom Checklist-90 item (SCL-90) questionnaire is used to evaluate the safety and/or efficacy of psilocybin. The SCL-90 is a relatively brief self-report psychometric instrument designed to evaluate a broad range of psychological problems and symptoms of psychopathology. In some embodiments, the SCL-90 is used to assess somatization, obsessive-compulsive behaviors, interpersonal sensitivity, depression, anxiety, hostility, phobic anxiety, paranoid ideation, and psychoticism of a subject treated according to the methods of the disclosure. The 90 items in the questionnaire are scored on a 5-point Likert scale, indicating the rate of occurrence of the symptom during the time reference. In some embodiments, after treating according to the methods of the disclosure, a subject's SCL-90 score decreases by about 5% to about 100%, for example, by about 5%, about 10%, about 15%, about 20%, about 25%, about 30%, about 35%, about 40%, about 45%, about 50%, about 55%, about 60%, about 65%, about 70%, about 75%, about 80%, about 85%, about 90%, about 95%, or about 100%.
The Neuroticism Extraversion Openness-Five Factor Inventory (NEO-FFI) and Symptom Checklist-90 Item (SCL-90) were administered. Details of the MMRM applied to the change from baseline scores for the NEO-FFI and SCL-90 are provided below in Table 2Q.

[1] = Day 7, psilocybin 10 mg - placebo
[2] = Day 7, psilocybin 25 mg - 10 mg
[3] = Day 7, psilocybin 25 mg - placebo
[4] = Day 84, psilocybin 10 mg - placebo
[5] = Day 84, psilocybin 25 mg - 10 mg
[6] = Day 84, psilocybin 25 mg - placebo

CN(C)CCc1c[nH]c2cccc(OP(=O)(O)O)c12 [Psilocybin, psilocybin]
SCL-90-somatisation change from baseline, LS mean (Day 7, psilocybin 10 mg): 0.1 | SCL-90 anger hostility change from baseline, LS mean (Day 7, psilocybin 10 mg): −0.0 | SCL-90 anxiety change from baseline, LS mean (Day 7, psilocybin 10 mg): −0.0 | SCL-90 depression change from baseline, LS mean (Day 7, psilocybin 10 mg): 0.0 | SCL-90 interpersonal sensitivity change from baseline, LS mean (Day 7, psilocybin 10 mg): −0.0 | SCL-90 obsessive compulsive change from baseline, LS mean (Day 7, psilocybin 10 mg): −0.1 | SCL-90 paranoid ideation change from baseline, LS mean (Day 7, psilocybin 10 mg): −0.0 | SCL-90 phobic anxiety change from baseline, LS mean (Day 7, psilocybin 10 mg): −0.0 | SCL-90 psychoticism change from baseline, LS mean (Day 7, psilocybin 10 mg): 0.0 | SCL-90-somatisation change from baseline, LS mean difference [1]: 0.1 | SCL-90 anger hostility change from baseline, LS mean difference [1]: −0.0 | SCL-90 anxiety change from baseline, LS mean difference [1]: −0.0 | SCL-90 depression change from baseline, LS mean difference [1]: 0.0 | SCL-90 interpersonal sensitivity change from baseline, LS mean difference [1]: −0.0 | SCL-90 obsessive compulsive change from baseline, LS mean difference [1]: 0.1 | SCL-90 paranoid ideation change from baseline, LS mean difference [1]: 0.0 | SCL-90 phobic anxiety change from baseline, LS mean difference [1]: −0.0 | SCL-90 psychoticism change from baseline, LS mean difference [1]: 0.0 | SCL-90-somatisation change from baseline, LS mean (Day 7, psilocybin 25 mg): 0.1 | SCL-90 anger hostility change from baseline, LS mean (Day 7, psilocybin 25 mg): −0.0 | SCL-90 anxiety change from baseline, LS mean (Day 7, psilocybin 25 mg): −0.0 | SCL-90 depression change from baseline, LS mean (Day 7, psilocybin 25 mg): 0.0 | SCL-90 interpersonal sensitivity change from baseline, LS mean (Day 7, psilocybin 25 mg): 0.0 | SCL-90 obsessive compulsive change from baseline, LS mean (Day 7, psilocybin 25 mg): −0.1 | SCL-90 paranoid ideation change from baseline, LS mean (Day 7, psilocybin 25 mg): 0.1 | SCL-90 phobic anxiety change from baseline, LS mean (Day 7, psilocybin 25 mg): 0.0 | SCL-90 psychoticism change from baseline, LS mean (Day 7, psilocybin 25 mg): 0.0 | SCL-90-somatisation change from baseline, LS mean difference [2]: −0.0 | SCL-90 anger hostility change from baseline, LS mean difference [2]: 0.0 | SCL-90 anxiety change from baseline, LS mean difference [2]: 0.0 | SCL-90 depression change from baseline, LS mean difference [2]: −0.0 | SCL-90 interpersonal sensitivity change from baseline, LS mean difference [2]: 0.1 | SCL-90 obsessive compulsive change from baseline, LS mean difference [2]: −0.0 | SCL-90 paranoid ideation change from baseline, LS mean difference [2]: 0.1 | SCL-90 phobic anxiety change from baseline, LS mean difference [2]: 0.0 | SCL-90 psychoticism change from baseline, LS mean difference [2]: 0.0 | SCL-90-somatisation change from baseline, LS mean difference [3]: 0.1 | SCL-90 anger hostility change from baseline, LS mean difference [3]: −0.0 | SCL-90 anxiety change from baseline, LS mean difference [3]: 0.0 | SCL-90 depression change from baseline, LS mean difference [3]: 0.0 | SCL-90 interpersonal sensitivity change from baseline, LS mean difference [3]: 0.0 | SCL-90 obsessive compulsive change from baseline, LS mean difference [3]: 0.1 | SCL-90 paranoid ideation change from baseline, LS mean difference [3]: 0.1 | SCL-90 phobic anxiety change from baseline, LS mean difference [3]: 0.0 | SCL-90 psychoticism change from baseline, LS mean difference [3]: 0.0 | SCL-90-somatisation change from baseline, LS mean (Day 84, psilocybin 10 mg): 0.0 | SCL-90 anger hostility change from baseline, LS mean (Day 84, psilocybin 10 mg): 0.0 | SCL-90 anxiety change from baseline, LS mean (Day 84, psilocybin 10 mg): −0.0 | SCL-90 depression change from baseline, LS mean (Day 84, psilocybin 10 mg): 0.1 | SCL-90 interpersonal sensitivity change from baseline, LS mean (Day 84, psilocybin 10 mg): 0.0 | SCL-90 obsessive compulsive change from baseline, LS mean (Day 84, psilocybin 10 mg): −0.0 | SCL-90 paranoid ideation change from baseline, LS mean (Day 84, psilocybin 10 mg): 0.1 | SCL-90 phobic anxiety change from baseline, LS mean (Day 84, psilocybin 10 mg): 0.0 | SCL-90 psychoticism change from baseline, LS mean (Day 84, psilocybin 10 mg): −0.0 | SCL-90-somatisation change from baseline, LS mean difference [4]: 0.0 | SCL-90 anger hostility change from baseline, LS mean difference [4]: −0.0 | SCL-90 anxiety change from baseline, LS mean difference [4]: −0.1 | SCL-90 depression change from baseline, LS mean difference [4]: 0.0 | SCL-90 interpersonal sensitivity change from baseline, LS mean difference [4]: −0.1 | SCL-90 obsessive compulsive change from baseline, LS mean difference [4]: 0.1 | SCL-90 paranoid ideation change from baseline, LS mean difference [4]: 0.1 | SCL-90 phobic anxiety change from baseline, LS mean difference [4]: −0.0 | SCL-90 psychoticism change from baseline, LS mean difference [4]: −0.0 | SCL-90-somatisation change from baseline, LS mean (Day 84, psilocybin 25 mg): 0.0 | SCL-90 anger hostility change from baseline, LS mean (Day 84, psilocybin 25 mg): 0.0 | SCL-90 anxiety change from baseline, LS mean (Day 84, psilocybin 25 mg): −0.0 | SCL-90 depression change from baseline, LS mean (Day 84, psilocybin 25 mg): 0.1 | SCL-90 interpersonal sensitivity change from baseline, LS mean (Day 84, psilocybin 25 mg): 0.0 | SCL-90 obsessive compulsive change from baseline, LS mean (Day 84, psilocybin 25 mg): −0.1 | SCL-90 paranoid ideation change from baseline, LS mean (Day 84, psilocybin 25 mg): 0.1 | SCL-90 phobic anxiety change from baseline, LS mean (Day 84, psilocybin 25 mg): 0.0 | SCL-90 psychoticism change from baseline, LS mean (Day 84, psilocybin 25 mg): 0.0 | SCL-90-somatisation change from baseline, LS mean difference [5]: 0.0 | SCL-90 anger hostility change from baseline, LS mean difference [5]: −0.0 | SCL-90 anxiety change from baseline, LS mean difference [5]: 0.0 | SCL-90 depression change from baseline, LS mean difference [5]: 0.0 | SCL-90 interpersonal sensitivity change from baseline, LS mean difference [5]: 0.0 | SCL-90 obsessive compulsive change from baseline, LS mean difference [5]: −0.1 | SCL-90 paranoid ideation change from baseline, LS mean difference [5]: 0.0 | SCL-90 phobic anxiety change from baseline, LS mean difference [5]: 0.0 | SCL-90 psychoticism change from baseline, LS mean difference [5]: 0.0 | SCL-90-somatisation change from baseline, LS mean difference [6]: 0.0 | SCL-90 anger hostility change from baseline, LS mean difference [6]: −0.0 | SCL-90 anxiety change from baseline, LS mean difference [6]: −0.0 | SCL-90 depression change from baseline, LS mean difference [6]: 0.0 | SCL-90 interpersonal sensitivity change from baseline, LS mean difference [6]: −0.0 | SCL-90 obsessive compulsive change from baseline, LS mean difference [6]: 0.0 | SCL-90 paranoid ideation change from baseline, LS mean difference [6]: 0.1 | SCL-90 phobic anxiety change from baseline, LS mean difference [6]: 0.0 | SCL-90 psychoticism change from baseline, LS mean difference [6]: −0.0
